Data: patent US8802597B2, “Herbicidal pyrimidines” (E I du Pont de Nemours and Company, priority 2003, dated 2014)

Tests used:
Type in all cases: in vivo
[1] = test system: common sowthistle (Sonchus oleraceous); test: Test G pre/postemergence
Method in brief: (§1)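 Greenhouse pre/postemergence screen with surfactant-containing solvent formulation; postemergence plants were 1- to 4-leaf stage. Percent control (0–100) was judged by eye against controls after 12–21 days.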

[2] = test system: purple nutsedge (Cyperus rotundus); test: Test G pre/postemergence
Method in brief: as §1

[3] = test system: spanishneedles (Bidens bipinnata); test: Test G pre/postemergence
Method in brief: as §1

[4] = test system: grape (Vitus vinifera) vines; test: Test G post-directed application; conditions: 1500 g ai/ha, scale 0 to 100
Procedure: (§2) At a different time, established container-grown grape (Vitus vinifera) vines, and olive (Olea europaea) and orange (Citrus sinensis) trees were treated with some of the test chemicals formulated in the same manner and applied to the soil surface and the lower 5 cm of the plant vines or trunks (post-directed application). Plants ranged in height from 30 to 100 cm. The applications were made using a hand sprayer delivering a volume of 990 L/ha. Treated plants and controls were maintained in a greenhouse for 28 days, after which time the treated plants were compared to controls and visually evaluated.
(§3) Plant response ratings, summarized in Table G, are based on a scale of 0 to 100 where 0 is no effect and 100 is complete control. A dash (-) response means no test result.

[5] = test system: olive (Olea europaea) trees; test: Test G post-directed application; conditions: 1500 g ai/ha, scale 0 to 100
Procedure: as §2, §3

[6] = test system: orange (Citrus sinensis) trees; test: Test G post-directed application; conditions: 1500 g ai/ha, scale 0 to 100
Procedure: as §2, §3

[7] = test system: sugarcane (Saccharum officinarum); test: Test G sugarcane pre/postemergence
Text: Also at a different time, seed pieces (nodes) of sugarcane (Saccharum officinarum) were planted and treated preemergence and/or postemergence with some of the test chemicals formulated in the same manner. Treated plants and controls were maintained in a greenhouse for 14 days, after which time the treated plants were compared to controls and visually evaluated.
as §3

[8] = test system: sulfonylurea herbicide-resistant (SU-resistant) catchweed bedstraw (GALAP; Galium aparine); test: Test K postemergence; conditions: 15 days
Procedure: (§4) Seeds of plant species selected from sulfonylurea herbicide-susceptible (SU-susceptible) and sulfonylurea herbicide-resistant (SU-resistant) catchweed bedstraw (GALAP; Galium aparine) and wheat (TRZAW; Triticum aestivum) were treated with postemergence applications of test chemicals formulated in a non-phytotoxic solvent mixture which included a surfactant. Plants were treated at the 2-3 leaf stage and 2 whorl stage for wheat and catchweed bedstraw, respectively. Treated plants and controls were maintained in a controlled growth environment for 15 days after which time all species were compared to controls and visually evaluated. Plant response ratings, summarized in Table K, are based on a scale of 0 to 100 where 0 is no effect and 100 is complete control. A dash (-) response means no test result.

[9] = test system: sulfonylurea herbicide-susceptible (SU-susceptible) catchweed bedstraw (GALAP; Galium aparine); test: Test K postemergence; conditions: 15 days
Procedure: as §4

[10] = test system: wheat (TRZAW; Triticum aestivum); test: Test K postemergence; conditions: 15 days
Procedure: as §4

[11] = Postemergence, 250 g ai/ha, scale 0 to 100
[12] = Postemergence, 500 g ai/ha, scale 0 to 100
[13] = Postemergence, 62 g ai/ha, scale 0 to 100
[14] = Postemergence, 125 g ai/ha, scale 0 to 100
[15] = Postemergence, 375 g ai/ha, scale 0 to 100
[16] = Preemergence, 62 g ai/ha, scale 0-100
[17] = Preemergence, 125 g ai/ha, scale 0-100
[18] = Preemergence, 250 g ai/ha, scale 0-100
[19] = Preemergence, 500 g ai/ha, scale 0-100
[20] = Preemergence, 500 g ai/ha, scale 0 to 100

CCOC(=O)c1nc(C2CC2)nc(N)c1Br [Compound 1, ethyl 6-amino-5-bromo-2-cyclopropyl-4-pyrimidinecarboxylate]
10: Plant response rating, Nutsedge, Purple [2, 14] | Plant response rating, Nutsedge, Purple [2, 16]
100: Plant response rating, Sowthistle [1, 12] | Plant response rating, Sowthistle [1, 17] | Plant response rating, Sowthistle [1, 18] | Plant response rating, Sowthistle [1, 19] | Plant response rating, Sowthistle [1, 20] | Plant response rating, Nutsedge, Purple [2, 17] | Plant response rating, Nutsedge, Purple [2, 18] | Plant response rating, Nutsedge, Purple [2, 19] | Plant response rating, Nutsedge, Purple [2, 20] | Plant response rating, Spanishneedles [3, 16] | Plant response rating, Spanishneedles [3, 17] | Plant response rating, Spanishneedles [3, 18] | Plant response rating, Spanishneedles [3, 19] | Plant response rating, Spanishneedles [3, 20] | Plant response rating, Grape [4] | Plant response rating (0 to 100 scale) ([8]; 4 g a.i./ha) | Plant response rating (0 to 100 scale) ([8]; 8 g a.i./ha) | Plant response rating (0 to 100 scale) ([8]; 16 g a.i./ha) | Plant response rating (0 to 100 scale) ([8]; 31 g a.i./ha) | Plant response rating (0 to 100 scale) ([8]; 62 g a.i./ha) | Plant response rating (0 to 100 scale) ([8]; 125 g a.i./ha) | Plant response rating (0 to 100 scale) ([9]; 62 g a.i./ha) | Plant response rating (0 to 100 scale) ([9]; 125 g a.i./ha)
98: Plant response rating (0 to 100 scale) ([9]; 16 g a.i./ha) | Plant response rating (0 to 100 scale) ([9]; 31 g a.i./ha)
63: Plant response rating (0 to 100 scale) ([9]; 4 g a.i./ha)
95: Plant response rating, Sowthistle [1, 11] | Plant response rating, Sowthistle [1, 13] | Plant response rating, Sowthistle [1, 14] | Plant response rating, Sowthistle [1, 15] | Plant response rating, Sowthistle [1, 16] | Plant response rating, Spanishneedles [3, 11] | Plant response rating, Spanishneedles [3, 12] | Plant response rating, Spanishneedles [3, 14] | Plant response rating, Spanishneedles [3, 15]
38: Plant response rating, Sugarcane [7, 12] | Plant response rating (0 to 100 scale) ([10]; 125 g a.i./ha)
80: Plant response rating, Spanishneedles [3, 13] | Plant response rating (0 to 100 scale) ([9]; 8 g a.i./ha)
25: Plant response rating (0 to 100 scale) ([10]; 31 g a.i./ha)
13: Plant response rating, Sugarcane [7, 11]
20: Plant response rating, Nutsedge, Purple [2, 11]
0: Plant response rating, Sugarcane ([7]; Postemergence, 31 g ai/ha, scale 0 to 100) | Plant response rating, Sugarcane [7, 13] | Plant response rating, Sugarcane [7, 16] | Plant response rating, Sugarcane [7, 17] | Plant response rating, Sugarcane [7, 18] | Plant response rating, Sugarcane ([7]; Preemergence, 375 g ai/ha, scale 0-100) | Plant response rating (0 to 100 scale) ([10]; 4 g a.i./ha) | Plant response rating (0 to 100 scale) ([10]; 8 g a.i./ha) | Plant response rating (0 to 100 scale) ([10]; 16 g a.i./ha)
30: Plant response rating, Nutsedge, Purple [2, 12] | Plant response rating, Nutsedge, Purple [2, 15] | Plant response rating (0 to 100 scale) ([10]; 62 g a.i./ha)
50: Plant response rating, Olive [5] | Plant response rating, Orange [6]
3: Plant response rating, Sugarcane [7, 14]
